Data as given in US9809542B2, “Spiroheterocyclically substituted tetramic acid derivatives” (BAYER INTELLECTUAL PROPERTY GMBH, priority 2010, dated 2017).

Tests used:
Type in all cases: in vivo
[1] = system: green peach aphid (Myzus persicae); assay: Myzus test (MYZUPE spray treatment); settings: application rate 500 g/ha, Chinese cabbage leaf discs, after 6 days
Description: Myzus Test (MYZUPE Spray Treatment)
Solvents: 78 parts by weight of acetone
(§1) • 1.5 parts by weight of dimethylformamide Emulsifier: 0.5 part by weight of alkylaryl polyglycol ether
To produce a suitable preparation of active compound, 1 part by weight of active compound is mixed with the stated amounts of solvents and emulsifier, and the concentrate is diluted with emulsifier-containing water to the desired concentration. Discs of Chinese cabbage (Brassica pekinensis) which are infested by all stages of the green peach aphid (Myzus persicae) are sprayed with an active compound preparation of the desired concentration. After 6 days, the effect in % is determined. 100% means that all aphids have been killed; 0% means that none of the aphids have been killed.

[2] = system: caterpillars of the armyworm (Spodoptera frugiperda); assay: Spodoptera frugiperda test (SPODFR spray treatment); settings: application rate 500 g/ha, maize leaf discs, after 7 days
Description: Spodoptera frugiperda Test (SPODFR Spray Treatment)
(§2) Solvents: 78.0 parts by weight of acetone
as §1
To produce a suitable preparation of active compound, 1 part by weight of active compound is mixed with the stated amounts of solvents and emulsifier, and the concentrate is diluted with emulsifier-containing water to the desired concentration. Discs of maize leaves (Zea mays) are sprayed with an active compound preparation of the desired concentration and, after drying, populated with caterpillars of the armyworm (Spodoptera frugiperda).
After 7 days, the effect in % is determined. 100% means that all caterpillars have been killed; 0% means that none of the caterpillars have been killed.

Echinocloa crus-galli [3] = assay: Herbicidal pre-emergence action; settings: pre-emergence method, 320 g of a.i./ha; about 3 weeks
Source text: 1. Herbicidal Pre-Emergence Action
(§3) • Seeds of monocotyledonous and dicotyledonous weed and crop plants are placed in sandy loam in wood fibre pots and covered with soil. The test compounds, formulated in the form of wettable powders (WP), are then, as aqueous suspension with a water application rate of 600 l/ha (converted), with 0.2% of wetting agent added, applied to the surface of the covering soil in various dosages. • After the treatment, the pots are placed in a greenhouse and kept under good growth conditions for the test plants. The visual assessment of the emergence damage on the test plants is carried out after a trial period of about 3 weeks by comparison with untreated controls (herbicidal effect in %: 100% effect=the plants have died, 0% effect=like control plants). • In addition to the compounds mentioned above, the following compounds, applied by the pre-emergence method at 320 g of a.i./ha, show an efficacy of 90% against Lolium multiflorum and Setaria viridis: I-1-a-1 • In addition to the compounds mentioned above, the following compounds, applied by the pre-emergence method at 320 g of a.i./ha, show an efficacy of 100% against Echinocloa crus-galli: I-a-2, I-b-1, I-b-2, I-c-2 2. Herbicidal Post-Emergence Action • Seeds of monocotyledonous and dicotyledonous weed and crop plants are placed in sandy loam in wood fibre pots, covered with soil and cultivated in a greenhouse under good growth conditions. 2-3 weeks after sowing, the test plants are treated at the one-leaf stage. The test compounds, formulated as wettable powders (WP), are, in various dosages at a water application rate of 600 l/ha (converted), with 0.2% of wetting agent added, sprayed onto the green parts of the plants. After the test plants have been kept in the greenhouse under optimum growth conditions for about 3 weeks, the effect of the preparations is rated visually in comparison to untreated controls (herbicidal effect in %: 100% effect=the plants have died, 0% effect=like control plants). • In addition to the compounds mentioned above, the following compounds, applied by the post-emergence method at 80 g/ha, show an efficacy of 90% against Echinocloa crus-galli and Lolium multiflorum: I-a-3, I-a-4, I-a-5.

[4] = system: greenhouse red spidermite (Tetranychus urticae); assay: Tetranychus test OP-resistant (TETRUR spray treatment); settings: application rate 100 g/ha, bean leaf discs, after 6 days
Description: Tetranychus Test OP-Resistant (TETRUR Spray Treatment)
as §2, §1
To produce a suitable preparation of active compound, 1 part by weight of active compound is mixed with the stated amounts of solvents and emulsifier, and the concentrate is diluted with emulsifier-containing water to the desired concentration. Discs of bean leaves (Phaseolus vulgaris) which are infested by all stages of the greenhouse red spidermite (Tetranychus urticae) are sprayed with an active compound preparation of the desired concentration.
After 6 days, the effect in % is determined. 100% means that all spidermites have been killed; 0% means that none of the spidermites have been killed.

Lolium multiflorum = assay: Herbicidal post-emergence action; settings: post-emergence method, 80 g/ha; about 3 weeks
Source text: as §3

Echinocloa crus-galli [5] = assay: Herbicidal post-emergence action; settings: post-emergence method, 80 g/ha; about 3 weeks
Source text: as §3

[6] = system: larva of the mustard beetle (Phaedon cochleariae); assay: Phaedon test (PHAECO spray treatment); settings: Chinese cabbage leaf discs, after 7 days
Description: Phaedon Test ([…] Spray Treatment) Solvents: 78.0 parts by weight of acetone • • 1.5 parts by weight of dimethylformamide Emulsifier: 0.5 part by weight of alkylaryl polyglycol ether To produce a suitable preparation of active compound, one part by weight of active compound is mixed with the stated amounts of solvents and emulsifier, and the concentrate is diluted with emulsifier-containing water to the desired concentration. Discs of Chinese cabbage (Brassica pekinensis) are sprayed with an active compound preparation of the desired concentration and, after drying, populated with larva of the mustard beetle (Phaedon cochleariae).

Lucilia cuprina larva = assay: Lucilia cuprina test (LUCICU); settings: application rate 100 ppm; treated horse meat; after 2 days
Description: Lucilia cuprina Test (LUCICU)
Solvent: Dimethyl sulphoxide
To produce a suitable preparation of active compound, 10 mg of active compound are mixed with 0.5 ml of dimethyl sulphoxide and the concentrate is diluted with water to the desired concentration. Containers containing horse meat treated with the active compound preparation of the desired concentration are populated with about 20 Lucilia cuprina larva.
After 2 days, the kill in % is determined. 100% means that all larva have been killed; 0% means that none of the larva have been killed.

CON1CCC2(CC1)NC(=O)C(c1c(C)ccc(-c3ccc(F)cc3)c1C)=C2OC(=O)C(C)C [I-b-1]
efficacy (effect in %, aphids killed) [1]: 100% | efficacy (effect in %, caterpillars killed) [2]: 100% | efficacy (herbicidal effect in %) (Echinocloa crus-galli [3]): 100%

COc1ccc(-c2ccc(F)cc2)c(Cl)c1C1=C(O)C2(CCN(OC)CC2)NC1=O [I-a-10]
efficacy (effect in %, aphids killed) [1]: 100% | efficacy (effect in %, spidermites killed) [4]: 90%

CCON1CCC2(CC1)NC(=O)C(c1c(OC)ccc(-c3ccc(F)cc3)c1Cl)=C2O [I-a-7]
efficacy (effect in %, aphids killed) [1]: 100% | efficacy (effect in %, spidermites killed) [4]: 90%

CON1CCC2(CC1)NC(=O)C(c1cc(-c3ccc(F)cc3)ccc1C)=C2O [I-a-5]
efficacy (effect in %, aphids killed) [1]: 100% | efficacy (effect in %, spidermites killed) [4]: 90% | efficacy (effect in %, caterpillars killed) [2]: 100% | efficacy (herbicidal effect in %) (Lolium multiflorum): 90% | efficacy (herbicidal effect in %) (Echinocloa crus-galli [5]): 90%

CCON1CCC2(CC1)NC(=O)C(c1c(CC)ccc(-c3ccc(F)cc3)c1C)=C2O [I-a-9]
efficacy (effect in %, aphids killed) [1]: 90% | efficacy (effect in %, beetle larva killed) ([6]; application rate 500 g/ha): 100% | efficacy (effect in %, spidermites killed) [4]: 90%

CON1CCC2(CC1)NC(=O)C(c1c(C)ccc(-c3ccc(Cl)c(F)c3)c1C)=C2O [I-a-15]
efficacy (effect in %, aphids killed) [1]: 100% | efficacy (effect in %, spidermites killed) [4]: 100% | efficacy (effect in %, caterpillars killed) [2]: 100%

CON1CCC2(CC1)NC(=O)C(c1cc(-c3ccc(F)cc3)ccc1Cl)=C2O [I-a-4]
efficacy (effect in %, aphids killed) [1]: 100% | efficacy (effect in %, spidermites killed) [4]: 100% | efficacy (effect in %, caterpillars killed) [2]: 83% | efficacy (herbicidal effect in %) (Lolium multiflorum): 90% | efficacy (herbicidal effect in %) (Echinocloa crus-galli [5]): 90%

CCc1ccc(-c2ccc(F)cc2)c(C)c1C1=C(O)C2(CCN(OC)CC2)NC1=O [I-a-8]
efficacy (effect in %, aphids killed) [1]: 90% | efficacy (effect in %, beetle larva killed) ([6]; application rate 500 g/ha): 100% | efficacy (effect in %, spidermites killed) [4]: 90%

CCON1CCC2(CC1)NC(=O)C(c1c(C)ccc(-c3ccc(F)c(F)c3)c1C)=C2O [I-a-11]
efficacy (effect in %, aphids killed) [1]: 100% | efficacy (effect in %, spidermites killed) [4]: 100%

CCON1CCC2(CC1)NC(=O)C(c1cc(-c3ccc(F)cc3)ccc1C)=C2O [I-a-6]
efficacy (effect in %, aphids killed) [1]: 100% | efficacy (effect in %, beetle larva killed) ([6]; application rate 100 g/ha): 100% | efficacy (effect in %, spidermites killed) [4]: 90% | efficacy (effect in %, caterpillars killed) [2]: 100%

CCON1CCC2(CC1)NC(=O)C(c1c(C)ccc(-c3ccc(F)cc3)c1C)=C2OC(=O)C(C)C [I-b-2]
efficacy (effect in %, aphids killed) [1]: 100% | efficacy (effect in %, caterpillars killed) [2]: 100% | efficacy (herbicidal effect in %) (Echinocloa crus-galli [3]): 100%

CON1CCC2(CC1)NC(=O)C(c1c(C)ccc(-c3ccc(F)c(F)c3)c1C)=C2O [I-a-13]
efficacy (effect in %, aphids killed) [1]: 100% | efficacy (effect in %, spidermites killed) [4]: 100%

CCOC(=O)OC1=C(c2c(OC)ccc(-c3ccc(F)cc3)c2Cl)C(=O)NC12CCN(OC)CC2 [I-c-3]
efficacy (effect in %, spidermites killed) [4]: 90%

CCOC(=O)OC1=C(c2c(C)ccc(-c3ccc(F)cc3)c2C)C(=O)NC12CCN(OCC)CC2 [I-c-2]
efficacy (effect in %, aphids killed) [1]: 100% | efficacy (effect in %, caterpillars killed) [2]: 100% | efficacy (herbicidal effect in %) (Echinocloa crus-galli [3]): 100% | efficacy (kill in %) (Lucilia cuprina larva): 80%

CCON1CCC2(CC1)NC(=O)C(c1c(C)ccc(-c3ccc(Cl)c(F)c3)c1C)=C2O [I-a-14]
efficacy (effect in %, aphids killed) [1]: 100% | efficacy (effect in %, spidermites killed) [4]: 90% | efficacy (effect in %, caterpillars killed) [2]: 100%

CCOC(=O)OC1=C(c2c(C)ccc(-c3ccc(F)cc3)c2C)C(=O)NC12CCN(OC)CC2 [I-c-1]
efficacy (effect in %, aphids killed) [1]: 100% | efficacy (effect in %, caterpillars killed) [2]: 100%

CCON1CCC2(CC1)NC(=O)C(c1cc(-c3ccc(F)cc3)ccc1Cl)=C2O [I-a-3]
efficacy (effect in %, aphids killed) [1]: 100% | efficacy (effect in %, beetle larva killed) ([6]; application rate 500 g/ha): 100% | efficacy (effect in %, spidermites killed) [4]: 90% | efficacy (effect in %, caterpillars killed) [2]: 83% | efficacy (herbicidal effect in %) (Lolium multiflorum): 90% | efficacy (herbicidal effect in %) (Echinocloa crus-galli [5]): 90%

CCON1CCC2(CC1)NC(=O)C(c1c(C)ccc(-c3ccc(F)c(Cl)c3)c1C)=C2O [I-a-12]
efficacy (effect in %, aphids killed) [1]: 100% | efficacy (effect in %, spidermites killed) [4]: 100% | efficacy (effect in %, caterpillars killed) [2]: 83%
